Source: patent US7820196B2, “Physiologically active agents containing vicinal dithioglycols and use thereof in various branches of economy” (priority 1999, dated 2010)

How the values were obtained:
broiler chickens [1] = assay: Example 6: effect of unithiol on accumulation of heavy metal compounds in tissues of poultry; format: in vivo
Description: (§1) An experiment was conducted, on the inventors' initiative, on the experimental base of the All-Russia research and technological institute for aviculture (VNITIP) during which a study was given to the following tasks: • determination of an effect produced by unithiol (DMPS) on the productivity and meat quality of broiler chickens; • effect produced by unithiol on the accumulation of heavy metal compounds (mercury, cadmium, lead) in various tissues of poultry.
(§2) The experiment was carried out in a vivarium on broiler chickens of one cross. Poultry was grown in cell batteries from one day to six-week age. The operating parameters and feeding level met the recommendation VNITIP 1999. The experiment was conducted according to the diagram on Table 1.
(§3) The poultry population: 1 and 2 groups, 35 heads each; 3,4,5 groups—6 heads each.
13. Contained heavy metal residual compounds (mercury, cadmium, lead) in mixed feed for the broilers.
14. Evaluation of the level of meat contamination and internal organs (liver and kidneys) of the broilers with heavy metal salts.

broiler chickens [2] = assay: Example 6: effect of unithiol on productivity and meat quality of broiler chickens; format: in vivo
Description: as §1, §2, §3
1. Chicks' individual live weight; weighing at the age of one day, 2-, 4-, 6 weeks.
2. Average daily live weight increase of the broilers over a 6-week period.
3. Safety of the poultry population, the daily record keeping of the broilers lost, with the causes of murrain established.
4. Feathering conditions, individual evaluation.
5. Feed consumption over a period of growing by way of the daily record keeping and weighing of specifies feed for each and every group, as calculated per head and per kg of live weight increase.
6. Dressed small carcass mass, individually weighing in slaughtering at the age of 6 weeks.
7. Dressed yield of meat as calculated.
8. Classification of small carcasses according to GOST 25391-82.
9. Meat qualities by way of anatomically dressing the small carcasses of broilers.
10. Chemical meat composition on terms of a dry substance.
12. Fatty acid meat composition.

[3] = Group 2: BR + 17 mg unithiol/kg feed days 15-42
[4] = Group 4: BR + heavy metals + 17 mg unithiol/kg feed, both days 15-42
[5] = Group 5: BR + heavy metals days 15-35, 34 mg unithiol/kg feed days 36-42

O=S(=O)([O-])CC(S)CS.[Na+] (centres unmarked) [Unithiol, Sodium 2,3-Dimercaptopropane sulfonate]
Heavy metal content: cadmium, kidneys (broiler chickens [1]; [3]): 0.078 mg/kg
Heavy metal content: cadmium, liver (broiler chickens [1]; [3]): 0.049 mg/kg
Heavy metal content: lead, kidneys (broiler chickens [1]; [3]): 0.67 mg/kg
Heavy metal content: lead, liver (broiler chickens [1]; [3]): 0.40 mg/kg
Heavy metal content: mercury, kidneys (broiler chickens [1]; [3]): 0.055 mg/kg
Heavy metal content: mercury, liver (broiler chickens [1]; [3]): 0.039 mg/kg
Heavy metal content: zinc, kidneys (broiler chickens [1]; [3]): 95.3 mg/kg
Heavy metal content: zinc, liver (broiler chickens [1]; [3]): 104.1 mg/kg
Heavy metal content: zinc, muscular tissue (broiler chickens [1]; [3]): 50.2 mg/kg
Heavy metal content: cadmium, kidneys (broiler chickens [1]; [4]): 3.76 mg/kg
Heavy metal content: cadmium, liver (broiler chickens [1]; [4]): 2.98 mg/kg
Heavy metal content: cadmium, muscular tissue (broiler chickens [1]; [4]): 0.37 mg/kg
Heavy metal content: lead, kidneys (broiler chickens [1]; [4]): 8.50 mg/kg
Heavy metal content: lead, liver (broiler chickens [1]; [4]): 4.80 mg/kg
Heavy metal content: lead, muscular tissue (broiler chickens [1]; [4]): 0.83 mg/kg
Heavy metal content: mercury, kidneys (broiler chickens [1]; [4]): 2.00 mg/kg
Heavy metal content: mercury, liver (broiler chickens [1]; [4]): 2.18 mg/kg
Heavy metal content: mercury, muscular tissue (broiler chickens [1]; [4]): 0.375 mg/kg
Heavy metal content: zinc, kidneys (broiler chickens [1]; [4]): 103.1 mg/kg
Heavy metal content: zinc, liver (broiler chickens [1]; [4]): 107.2 mg/kg
Heavy metal content: zinc, muscular tissue (broiler chickens [1]; [4]): 50.4 mg/kg
Heavy metal content: cadmium, kidneys (broiler chickens [1]; [5]): 2.97 mg/kg
Heavy metal content: cadmium, liver (broiler chickens [1]; [5]): 2.30 mg/kg
Heavy metal content: cadmium, muscular tissue (broiler chickens [1]; [5]): 0.24 mg/kg
Heavy metal content: lead, kidneys (broiler chickens [1]; [5]): 7.00 mg/kg
Heavy metal content: lead, liver (broiler chickens [1]; [5]): 3.40 mg/kg
Heavy metal content: lead, muscular tissue (broiler chickens [1]; [5]): 0.54 mg/kg
Heavy metal content: mercury, kidneys (broiler chickens [1]; [5]): 1.05 mg/kg
Heavy metal content: mercury, liver (broiler chickens [1]; [5]): 1.12 mg/kg
Heavy metal content: mercury, muscular tissue (broiler chickens [1]; [5]): 0.328 mg/kg
Heavy metal content: zinc, kidneys (broiler chickens [1]; [5]): 98.2 mg/kg
Heavy metal content: zinc, liver (broiler chickens [1]; [5]): 104.3 mg/kg
Heavy metal content: zinc, muscular tissue (broiler chickens [1]; [5]): 50.3 mg/kg
heavy metal salt content in the depositing organs and meat (broiler chickens [1]; use of unithiol): considerably reduce a heavy metal salt content
feathering conditions (broiler chickens [2]; 2nd group): best value of feathering conditions
feed remuneration with products (broiler chickens [2]; 4th and 5th groups, unithiol as additive in feed): improved feed remuneration with products
organoleptic indices of meat (taste, organoleptic qualities of broths) (broiler chickens [2]; 5nd group, unithiol additionally to feed): highest value as to organoleptic indices
rates of growth (broiler chickens [2]; Group 2: 17 mg/kg of feed since 2-week age): higher rates of growth
Dressed carcasses, weight (broiler chickens [2]; [3]): 1310 gr
Feed consumption per head (broiler chickens [2]; [3]): 3670 gr
Feed consumption per kg of gain in live weight (broiler chickens [2]; [3]): 1.98 kg
Inflamed sores (broiler chickens [2]; [3]): 14.2%
Meat category 1 (broiler chickens [2]; [3]): 88.6%
Meat category 2 (broiler chickens [2]; [3]): 11.4%
Meat yield (broiler chickens [2]; [3]): 69.3%
chemical meat composition: Ash (broiler chickens [2]; [3]): 0.99%
chemical meat composition: Dry substance (broiler chickens [2]; [3]): 28.46%
chemical meat composition: Fat (broiler chickens [2]; [3]): 7.79%
chemical meat composition: Protein (broiler chickens [2]; [3]): 19.68%
chemical meat composition: Water (broiler chickens [2]; [3]): 70.4%
fatty acid meat composition: Fatty acids (total) (broiler chickens [2]; [3]): 29.58 mg per 100 gr of product
fatty acid meat composition: Heptadecanoic (broiler chickens [2]; [3]): 0.24 mg per 100 gr of product
fatty acid meat composition: Heptadecynoic (broiler chickens [2]; [3]): 0.14 mg per 100 gr of product
fatty acid meat composition: Isomyristic (broiler chickens [2]; [3]): 0.16 mg per 100 gr of product
fatty acid meat composition: Isopentadecanoic (broiler chickens [2]; [3]): 0.14 mg per 100 gr of product
fatty acid meat composition: Linoleic (broiler chickens [2]; [3]): 6.41 mg per 100 gr of product
fatty acid meat composition: Linolenic (broiler chickens [2]; [3]): 0.29 mg per 100 gr of product
fatty acid meat composition: Myristic (broiler chickens [2]; [3]): 0.22 mg per 100 gr of product
fatty acid meat composition: Oleic (broiler chickens [2]; [3]): 0.13 mg per 100 gr of product
fatty acid meat composition: Palmitic (broiler chickens [2]; [3]): 7.05 mg per 100 gr of product
fatty acid meat composition: Palmitoleic (broiler chickens [2]; [3]): 2.25 mg per 100 gr of product
fatty acid meat composition: Pentadecanoic (broiler chickens [2]; [3]): 0.12 mg per 100 gr of product
fatty acid meat composition: Polyunsaturated (broiler chickens [2]; [3]): 6.70 mg per 100 gr of product
fatty acid meat composition: Saturated and monounsaturated (broiler chickens [2]; [3]): 22.88 mg per 100 gr of product
fatty acid meat composition: Stearic (broiler chickens [2]; [3]): 2.44 mg per 100 gr of product
Dressed carcasses, weight (broiler chickens [2]; [4]): 1217 gr
Feed consumption per head (broiler chickens [2]; [4]): 3750 gr
Feed consumption per kg of gain in live weight (broiler chickens [2]; [4]): 2.13 kg
